{"source": "patent US20080200635A1", "about": "“POLYSILANE COMPOUND AND SYNTHESIS METHOD, ULTRAVIOLET-RAY CURABLE INK COMPOSITION, INKJET RECORDING METHOD AND APPARATUS, AND INK CONTAINER” (SEIKO EPSON CORPORATION, priority 2007, published 2008)", "key": {"[1]": {"experiment": "Viscosity of monomers at 25° C.", "format": "physicochemical", "details": "measured value at 25° C.", "method": "The viscosities in the foregoing table are a measured value at 25° C."}, "[2]": {"details": "primary irritation index; cited from earlier work"}}}
{"molecule": "C=CC(=O)OCC1COC(C)(CC(C)C)O1", "note": "(centres unmarked) [(2-Methyl-2-isobutyl-1,3-dioxolan-4-yl)methyl acrylate]", "values": [{"measurement": "Viscosity", "setting": "[1]", "result": 5.3, "unit": "mPa · s"}, {"measurement": "P.I.I.", "setting": "[2]", "result": 1.0}]}
{"molecule": "Trimethylolpropane PO-modified triacrylate", "values": [{"measurement": "Viscosity", "setting": "[1]", "result": 60, "unit": "mPa · s"}, {"measurement": "P.I.I.", "setting": "[2]", "result": 0.1}]}
{"molecule": "C=C(C)C(=O)OCCOCCOC(=O)C(=C)C", "note": "[Diethylene glycol dimethacrylate]", "values": [{"measurement": "Viscosity", "setting": "[1]", "result": 5, "unit": "mPa · s"}, {"measurement": "P.I.I.", "setting": "[2]", "result": 0.5}]}
{"molecule": "C=CC(=O)N1CCOCC1", "note": "[Acryloyl morpholine]", "values": [{"measurement": "Viscosity", "setting": "[1]", "result": 12, "unit": "mPa · s"}]}
{"molecule": "C=C(C)C(=O)OCCCCOC(=O)C(=C)C", "note": "[1,4-Butanediol dimethacrylate]", "values": [{"measurement": "Viscosity", "setting": "[1]", "result": 7, "unit": "mPa · s"}, {"measurement": "P.I.I.", "setting": "[2]", "result": 2.0}]}
{"molecule": "C=C(C)C(=O)OCCOCCOCCOCCOC(=O)C(=C)C", "note": "[Tetraethylene glycol dimethacrylate]", "values": [{"measurement": "Viscosity", "setting": "[1]", "result": 14, "unit": "mPa · s"}, {"measurement": "P.I.I.", "setting": "[2]", "result": 0.5}]}
{"molecule": "C=CC(=O)OCC(C)OCC(C)OCC(C)OC(=O)C=C", "note": "(centres unmarked) [Tripropylene glycol diacrylate]", "values": [{"measurement": "Viscosity", "setting": "[1]", "result": 12, "unit": "mPa · s"}, {"measurement": "P.I.I.", "setting": "[2]", "result": 1.6}]}
{"molecule": "C=C(C)C(=O)OCC(CC)(COC(=O)C(=C)C)COC(=O)C(=C)C", "note": "[Trimethylolpropane trimethacrylate]", "values": [{"measurement": "Viscosity", "setting": "[1]", "result": 42, "unit": "mPa · s"}, {"measurement": "P.I.I.", "setting": "[2]", "result": 0.8}]}
{"molecule": "Glycerin PO-modified triacrylate", "values": [{"measurement": "Viscosity", "setting": "[1]", "result": 75, "unit": "mPa · s"}]}
{"molecule": "Polyethylene glycol #400 diacrylate", "values": [{"measurement": "Viscosity", "setting": "[1]", "result": 58, "unit": "mPa · s"}, {"measurement": "P.I.I.", "setting": "[2]", "result": 0.4}]}
{"molecule": "C=C(C)C(=O)OCC(C)(C)COC(=O)C(=C)C", "note": "[Neopentyl glycol dimethacrylate]", "values": [{"measurement": "Viscosity", "setting": "[1]", "result": 7, "unit": "mPa · s"}, {"measurement": "P.I.I.", "setting": "[2]", "result": 0.0}]}
{"molecule": "C=CC(=O)OCCCCCCCCCOC(=O)C=C", "note": "[1,9-Nonanediol diacrylate]", "values": [{"measurement": "Viscosity", "setting": "[1]", "result": 21, "unit": "mPa · s"}, {"measurement": "P.I.I.", "setting": "[2]", "result": 2.0}]}
{"molecule": "C=C(C)C(=O)OCC1COC(C)(CC)O1", "note": "(centres unmarked) [(2-Methyl-2-ethyl-1,3-dioxolan-4-yl)methyl methacrylate]", "values": [{"measurement": "Viscosity", "setting": "[1]", "result": 5.1, "unit": "mPa · s"}, {"measurement": "P.I.I.", "setting": "[2]", "result": 1.3}]}
{"molecule": "Trimethylolpropane modified triacrylate", "values": [{"measurement": "Viscosity", "setting": "[1]", "result": 55, "unit": "mPa · s"}, {"measurement": "P.I.I.", "setting": "[2]", "result": 1.5}]}
{"molecule": "C=C(C)C(=O)OCCCCCCOC(=O)C(=C)C", "note": "[1,6-Hexanediol dimethacrylate]", "values": [{"measurement": "Viscosity", "setting": "[1]", "result": 6, "unit": "mPa · s"}, {"measurement": "P.I.I.", "setting": "[2]", "result": 0.5}]}
{"molecule": "C=C(C)C(=O)OCCOC(=O)C(=C)C", "note": "[Ethylene glycol dimethacrylate]", "values": [{"measurement": "Viscosity", "setting": "[1]", "result": 3, "unit": "mPa · s"}, {"measurement": "P.I.I.", "setting": "[2]", "result": 0.6}]}
{"molecule": "C=CC(=O)O[C@@H]1C[C@H]2CC[C@]1(C)C2(C)C", "note": "[Isobonyl acrylate]", "values": [{"measurement": "Viscosity", "setting": "[1]", "result": 2.6, "unit": "mPa · s"}, {"measurement": "P.I.I.", "setting": "[2]", "result": 0.6}]}
{"molecule": "C=CC(=O)OCCOc1ccccc1", "note": "[Phenoxyethyl acrylate]", "values": [{"measurement": "Viscosity", "setting": "[1]", "result": 3.3, "unit": "mPa · s"}, {"measurement": "P.I.I.", "setting": "[2]", "result": 1.7}]}
{"molecule": "C=CC(=O)OCCOCCOC", "note": "[Methoxy diethylene glycol monoacrylate]", "values": [{"measurement": "Viscosity", "setting": "[1]", "result": 2, "unit": "mPa · s"}, {"measurement": "P.I.I.", "setting": "[2]", "result": 0.7}]}
{"molecule": "C=C(C)C(=O)OCC(O)COC(=O)C(=C)C", "note": "[2-Hydroxy-1,3-dimethacryloxypropane]", "values": [{"measurement": "Viscosity", "setting": "[1]", "result": 37, "unit": "mPa · s"}, {"measurement": "P.I.I.", "setting": "[2]", "result": 0.6}]}
